Assay results from patent publication US20250099634A1, “METHOD OF TREATING CANCER” (Novartis AG, priority 2023, published 2025).
Read-outs that look alike come from different tables or passages of the source.

What was measured:
metastatic midgut NET = conditions: 30 mg/month, cited from earlier work
[1] = healthy subjects, 20 mg and 60 mg; cited from earlier work
[2] = All grades, randomized treatment period, Safety Set
[3] = Grade >=3, randomized treatment period, Safety Set
[4] = all grades, randomized treatment period
[5] = most frequent AEs, summary table

With `C[C@@H](O)[C@@H]1NC(=O)[C@H](CCCCN)NC(=O)[C@@H](Cc2c[nH]c3ccccc23)NC(=O)[C@H](Cc2ccccc2)NC(=O)[C@@H](NC(=O)[C@H](N)Cc2ccccc2)CSSC[C@@H](C(=O)N[C@H](CO)[C@@H](C)O)NC1=O` [Octreotide LAR, octreotide] the “AEs leading to discontinuation of Any Treatment (Lutathera, Octreotide)” value [2] was 2 (2.7) n (%), the “AEs leading to discontinuation of Octreotide” value [2] was 2 (2.7) n (%) and the “AEs leading to dose interruption of Any Treatment (Lutathera, Octreotide)” value [2] was 11 (15.1) n (%). The “AEs leading to dose interruption of Octreotide” value [2] was 11 (15.1) n (%), the “AEs leading to dose reduction of Any Treatment (Lutathera, Octreotide)” value [2] was 1 (1.4) n (%) and the “AEs leading to dose reduction of Octreotide” value [2] was 1 (1.4) n (%). For the same compound, the “Adverse event: Abdominal pain” value [2] was 20 (27.4) n (%), the “Adverse event: Alanine aminotransferase increased” value [2] was 10 (13.7) n (%) and the “Adverse event: Alopecia” value [2] was 1 (1.4) n (%). For the same compound, the “Adverse event: Anaemia” value [2] was 5 (6.8) n (%), the “Adverse event: Aspartate aminotransferase increased” value [2] was 8 (11.0) n (%) and the “Adverse event: Asthenia” value [2] was 9 (12.3) n (%). For the same compound, the “Adverse event: COVID-19” value [2] was 10 (13.7) n (%), the “Adverse event: Constipation” value [2] was 6 (8.2) n (%) and the “Adverse event: Decreased appetite” value [2] was 7 (9.6) n (%). The “Adverse event: Diarrhoea” value [2] was 25 (34.2) n (%), the “Adverse event: Gamma-glutamyltransferase increased” value [2] was 8 (11.0) n (%) and the “Adverse event: Headache” value [2] was 5 (6.8) n (%). The “Adverse event: Hyperglycaemia” value [2] was 11 (15.1) n (%), the “Adverse event: Lymphocyte count decreased” value [2] was 0 n (%) and the “Adverse event: Oedema peripheral” value [2] was 6 (8.2) n (%). The “Adverse event: Platelet count decreased” value [2] was 4 (5.5) n (%), the “Adverse event: Vomiting” value [2] was 6 (8.2) n (%) and the “Adverse event: Weight increased” value [2] was 5 (6.8) n (%). For the same compound, the “Adverse event: White blood cell count decreased” value [2] was 3 (4.1) n (%), the Adverse events [2] was 69 (94.5) n (%) and the “Adverse events Related to Any Treatment” value [2] was 43 (58.9) n (%). For the same compound, the “Adverse events Related to Octreotide” value [2] was 43 (58.9) n (%), the “Adverse events: Number of subjects with at least one event” value [2] was 69 (94.5) n (%) and the “AEs leading to discontinuation of Any Treatment (Lutathera, Octreotide)” value [3] was 2 (2.7) n (%). For the same compound, the “AEs leading to discontinuation of Octreotide” value [3] was 2 (2.7) n (%), the “AEs leading to dose interruption of Any Treatment (Lutathera, Octreotide)” value [3] was 5 (6.8) n (%) and the “AEs leading to dose interruption of Octreotide” value [3] was 5 (6.8) n (%). The “AEs leading to dose reduction of Any Treatment (Lutathera, Octreotide)” value [3] was 1 (1.4) n (%), the “AEs leading to dose reduction of Octreotide” value [3] was 1 (1.4) n (%) and the “Adverse event: Abdominal pain” value [3] was 3 (4.1) n (%). The “Adverse event: Alanine aminotransferase increased” value [3] was 2 (2.7) n (%), the “Adverse event: Alopecia” value [3] was 0 n (%) and the “Adverse event: Anaemia” value [3] was 1 (1.4) n (%). The “Adverse event: Aspartate aminotransferase increased” value [3] was 2 (2.7) n (%), the “Adverse event: Asthenia” value [3] was 0 n (%) and the “Adverse event: COVID-19” value [3] was 0 n (%). The “Adverse event: Constipation” value [3] was 0 n (%), the “Adverse event: Decreased appetite” value [3] was 0 n (%) and the “Adverse event: Diarrhoea” value [3] was 1 (1.4) n (%). For the same compound, the “Adverse event: Gamma-glutamyltransferase increased” value [3] was 2 (2.7) n (%), the “Adverse event: Headache” value [3] was 0 n (%) and the “Adverse event: Hyperglycaemia” value [3] was 2 (2.7) n (%). The “Adverse event: Lymphocyte count decreased” value [3] was 0 n (%), the “Adverse event: Oedema peripheral” value [3] was 1 (1.4) n (%) and the “Adverse event: Platelet count decreased” value [3] was 0 n (%). The “Adverse event: Vomiting” value [3] was 1 (1.4) n (%), the “Adverse event: Weight increased” value [3] was 0 n (%) and the “Adverse event: White blood cell count decreased” value [3] was 0 n (%). The Adverse events [3] was 20 (27.4) n (%), the “Adverse events Related to Any Treatment” value [3] was 3 (4.1) n (%) and the “Adverse events Related to Octreotide” value [3] was 3 (4.1) n (%). For the same compound, the “Adverse events: Number of subjects with at least one event” value [3] was 20 (27.4) n (%), the “adverse event by preferred term: abdominal pain” value [4] was 27.4% and the “adverse event by preferred term: diarrhoea” value [4] was 34.2%. The “Incidence of AEs: Abdominal pain” value [5] was 20 (27.4) (%), the “Incidence of AEs: Diarrhoea” value [5] was 25 (34.2) (%) and the “AEs leading to discontinuation of Lutathera and/or Octreotide” value (randomized treatment period) was 2.7%. For the same compound, the “AEs leading to discontinuation of Octreotide” value (randomized treatment period) was 2.7%, the “Any AEs” value (randomized treatment period) was 94.5% and the “Grade 3/4 AE: GGT increased” value (randomized treatment period) was 2.7%. For the same compound, the “Grade 3/4 AE: Lymphocyte count decreased” value (randomized treatment period) was 0%, the “Grade 3/4 AE: abdominal pain” value (randomized treatment period) was 4.1% and the “Grade 3/4 AE: small intestinal obstruction” value (randomized treatment period) was 0%. The “Grade ≥3 AEs” value (randomized treatment period) was 27.4%, the “Grade ≥3 AEs, Treatment-related” value (randomized treatment period) was 4.1% and the “time to tumor progression” value (metastatic midgut NET; 42 patients) was 14.3 months. The “patients achieving stable disease” value (metastatic midgut NET) was 67% and the “plasma exposure vs dose” value [1] was “dose-proportional”.
